How the values were obtained:
Plasma protein = test: Biological Test Example 5: fraction unbound in human plasma (equilibrium dialysis); assay type: in vitro ADME
[1] = molecular target: human recombinant cytochrome P450 2C9 (Homo sapiens, UniProt P11712); test: Biological Test Example 7: CYP2C9 inhibition ([O-methyl-14C]-Naproxen O-demethylation)
[2] = molecular target: human recombinant cytochrome P450 3A4 (Homo sapiens, UniProt P08684)
[3] = molecular target: human recombinant cytochrome P450 2C19 (Homo sapiens, UniProt P33261); test: Biological Test Example 8: CYP2C19 inhibition ([N-methyl-14C]-Diazepam N-demethylation)
Sequence of human recombinant cytochrome P450 2C19 (P33261 whole entry): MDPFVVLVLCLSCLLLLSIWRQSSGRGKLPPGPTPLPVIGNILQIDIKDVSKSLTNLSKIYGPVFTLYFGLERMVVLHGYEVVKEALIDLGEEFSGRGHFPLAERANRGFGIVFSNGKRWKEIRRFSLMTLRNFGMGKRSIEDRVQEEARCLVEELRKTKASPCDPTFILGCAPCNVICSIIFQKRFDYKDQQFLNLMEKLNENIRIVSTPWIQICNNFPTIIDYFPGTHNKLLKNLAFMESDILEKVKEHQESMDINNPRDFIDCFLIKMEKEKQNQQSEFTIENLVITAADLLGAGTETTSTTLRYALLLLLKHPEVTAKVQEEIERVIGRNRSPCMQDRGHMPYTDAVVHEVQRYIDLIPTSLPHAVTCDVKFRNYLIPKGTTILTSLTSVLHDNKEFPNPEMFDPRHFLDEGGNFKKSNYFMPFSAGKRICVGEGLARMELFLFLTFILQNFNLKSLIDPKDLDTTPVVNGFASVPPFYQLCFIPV

Sequence of human recombinant cytochrome P450 2C9 (P11712 whole entry): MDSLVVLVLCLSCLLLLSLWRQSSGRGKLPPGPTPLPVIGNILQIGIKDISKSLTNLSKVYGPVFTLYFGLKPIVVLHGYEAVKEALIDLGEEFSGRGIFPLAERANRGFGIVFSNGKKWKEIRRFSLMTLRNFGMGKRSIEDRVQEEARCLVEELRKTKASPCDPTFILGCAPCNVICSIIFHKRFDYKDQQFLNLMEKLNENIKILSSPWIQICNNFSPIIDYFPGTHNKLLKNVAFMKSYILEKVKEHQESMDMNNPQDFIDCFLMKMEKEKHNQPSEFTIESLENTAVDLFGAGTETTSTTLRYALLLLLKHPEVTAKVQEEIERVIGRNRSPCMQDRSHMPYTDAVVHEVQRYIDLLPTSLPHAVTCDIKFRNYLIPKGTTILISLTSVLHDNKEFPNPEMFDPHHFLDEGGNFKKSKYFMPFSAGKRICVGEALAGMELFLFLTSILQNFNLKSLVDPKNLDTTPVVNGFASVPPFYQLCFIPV
Sequence of human recombinant cytochrome P450 3A4 (P08684 whole entry): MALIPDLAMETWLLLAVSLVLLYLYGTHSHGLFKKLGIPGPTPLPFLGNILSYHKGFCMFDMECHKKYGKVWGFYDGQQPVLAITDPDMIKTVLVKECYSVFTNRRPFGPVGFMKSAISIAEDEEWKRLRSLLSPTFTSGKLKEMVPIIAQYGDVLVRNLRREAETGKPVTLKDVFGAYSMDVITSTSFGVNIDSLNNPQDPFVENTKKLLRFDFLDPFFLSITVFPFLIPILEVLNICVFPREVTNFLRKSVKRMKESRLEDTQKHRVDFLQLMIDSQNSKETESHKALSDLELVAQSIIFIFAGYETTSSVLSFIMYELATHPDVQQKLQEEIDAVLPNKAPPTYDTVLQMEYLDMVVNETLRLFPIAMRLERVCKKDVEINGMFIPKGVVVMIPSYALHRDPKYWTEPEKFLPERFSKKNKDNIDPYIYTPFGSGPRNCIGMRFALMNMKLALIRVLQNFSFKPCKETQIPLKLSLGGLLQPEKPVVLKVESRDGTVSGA

Compound | Biological Test Example 5 (%) (Plasma protein; Comparator Compounds) | IC50 [1] | IC50 [2] | IC50 [3] | Biological Test Example 5 (%) (Plasma protein; Examples)
C[C@@H](c1ccc(-c2ccc(=O)n(C3CC3)c2)cc1)N1CC[C@](CC(C)(C)O)(c2ccccc2)OC1=O [Example 3, (S)-3-((S)-1-(4-(1-cyclopropyl-6-oxo-1,6-dihydropyridin-3-yl)phenyl)ethyl)-6-(2-hydroxy-2-methylpropyl)-6-phenyl-1,3-oxazinan-2-one] | 0.3% | 38 µM | 44 µM | – | –
C[C@@H](c1ccc(-c2ccc(=O)n(C(F)F)c2)cc1)N1CC[C@](CC(C)(C)O)(c2ccccc2)OC1=O [Example 4, (S)-3-((S)-1-(4-(1-(difluoromethyl)-6-oxo-1,6-dihydropyridin-3-yl)phenyl)ethyl)-6-(2-hydroxy-2-methylpropyl)-6-phenyl-1,3-oxazinan-2-one] | – | 17 µM | 21 µM | – | –
C[C@@H](c1ccc(-c2ccn(C(F)F)c(=O)c2)cc1)N1CC[C@](CC(C)(C)O)(c2ccccc2)OC1=O [Example 5, (S)-3-((S)-1-(4-(1-(difluoromethyl)-2-oxo-1,2-dihydropyridin-4-yl)phenyl)ethyl)-6-(2-hydroxy-2-methylpropyl)-6-phenyl-1,3-oxazinan-2-one] | – | – | 29 µM | – | –
C[C@@H](c1ccc(-c2ccc(=O)n(C)c2)cc1)N1CC[C@](CC(C)(C)NS(C)(=O)=O)(c2ccccc2)OC1=O [Example 11, N-(2-methyl-1-((S)-3-((S)-1-(4-(1-methyl-6-oxo-1,6-dihydropyridin-3-yl)phenyl)ethyl)-2-oxo-6-phenyl-1,3-oxazinan-6-yl)propan-2-yl)methanesulfonamide] | 0.7% | – | – | – | –
C[C@@H](c1ccc(-c2cc[nH]c(=O)c2)cc1)N1CC[C@](CC(C)(C)C#N)(c2ccccc2)OC1=O [Example 14, 2,2-dimethyl-3-((R)-2-oxo-3-((S)-1-(4-(2-oxo-1,2-dihydropyridin-4-yl)phenyl)ethyl)-6-phenyl-1,3-oxazinan-6-yl)propanenitrile] | – | 18 µM | 25 µM | 24 µM | –
C[C@@H](c1ccc(-c2ccn(CCF)c(=O)c2)cc1)N1CC[C@](CC(C)(C)O)(c2ccccc2)OC1=O [Example 25, (S)-3-((S)-1-(4-(1-(2-fluoroethyl)-2-oxo-1,2-dihydropyridin-4-yl)phenyl)ethyl)-6-(2-hydroxy-2-methylpropyl)-6-phenyl-1,3-oxazinan-2-one] | – | 30 µM | 33 µM | – | –
C[C@@H](c1ccc(-c2ccc(=O)n(C)c2)cc1)N1CC[C@](CCCO)(c2ccccc2)OC1=O [Example 30, (R)-6-(3-hydroxypropyl)-3-((S)-1-(4-(1-methyl-6-oxo-1,6-dihydropyridin-3-yl)phenyl)ethyl)-6-phenyl-1,3-oxazinan-2-one] | – | – | – | 27 µM | 13.9%
C[C@@H](c1ccc(-c2ccn(C)c(=O)c2)cc1)N1CC[C@](CC(C)(C)O)(c2ccccc2)OC1=O [Example 48, (S)-6-(2-hydroxy-2-methylpropyl)-3-((S)-1-(4-(1-methyl-2-oxo-1,2-dihydropyridin-4-yl)phenyl)ethyl)-6-phenyl-1,3-oxazinan-2-one] | – | – | – | – | 8.7%
CC[C@@H](c1ccc(-c2ccc(=O)n(CC)c2)cc1)N1CC[C@](CC(C)(C)O)(c2ccccc2)OC1=O [Example 52, (S)-3-((S)-1-(4-(1-ethyl-6-oxo-1,6-dihydropyridin-3-yl)phenyl)propyl)-6-(2-hydroxy-2-methylpropyl)-6-phenyl-1,3-oxazinan-2-one] | – | – | – | – | 9.0%
CCn1cc(-c2ccc([C@H](C)N3CC[C@](CC(C)(C)O)(c4ccccc4)OC3=O)cc2)ccc1=O [Example 53, (S)-3-((S)-1-(4-(1-ethyl-6-oxo-1,6-dihydropyridin-3-yl)phenyl)ethyl)-6-(2-hydroxy-2-methylpropyl)-6-phenyl-1,3-oxazinan-2-one] | – | – | – | – | 12.8%
CC[C@@H](c1ccc(-c2ccc(=O)n(C)c2)cc1)N1CC[C@](CC(C)(C)O)(c2ccccc2)OC1=O [Example 54, (S)-6-(2-hydroxy-2-methylpropyl)-3-((S)-1-(4-(1-methyl-6-oxo-1,6-dihydropyridin-3-yl)phenyl)propyl)-6-phenyl-1,3-oxazinan-2-one] | – | – | – | 18 µM | 9.1%
CC[C@@H](c1ccc(-c2ccn(C)c(=O)c2)cc1)N1CC[C@](CC)(c2ccccc2)OC1=O [Example 58, (R)-6-ethyl-3-((S)-1-(4-(1-methyl-2-oxo-1,2-dihydropyridin-4-yl)phenyl)propyl)-6-phenyl-1,3-oxazinan-2-one] | – | 3 µM | 8 µM | 2 µM | –
CC(C)n1cc(-c2ccc([C@H](C)N3CC[C@](CC(C)(C)O)(c4ccccc4)OC3=O)cc2)ccc1=O [Example 59, (S)-6-(2-hydroxy-2-methylpropyl)-3-((S)-1-(4-(1-isopropyl-6-oxo-1,6-dihydropyridin-3-yl)phenyl)ethyl)-6-phenyl-1,3-oxazinan-2-one] | – | – | – | 37 µM | –
Cc1cc(-c2ccc([C@H](C)N3CC[C@](CC(C)(C)O)(c4ccccc4)OC3=O)cc2)cn(C)c1=O [Example 61, (S)-3-((S)-1-(4-(1,5-dimethyl-6-oxo-1,6-dihydropyridin-3-yl)phenyl)ethyl)-6-(2-hydroxy-2-methylpropyl)-6-phenyl-1,3-oxazinan-2-one] | – | 40 µM | – | 18 µM | –
CCn1cc(-c2ccc([C@H](C)N3CC[C@](CC(C)(C)O)(c4ccc(F)cc4)OC3=O)cc2)ccc1=O [Example 62, (S)-3-((S)-1-(4-(1-ethyl-6-oxo-1,6-dihydropyridin-3-yl)phenyl)ethyl)-6-(4-fluorophenyl)-6-(2-hydroxy-2-methylpropyl)-1,3-oxazinan-2-one] | – | – | 48 µM | 38 µM | –
Cc1cc(-c2ccc([C@H](C)N3CC[C@](CC(C)(C)O)(c4ccccc4)OC3=O)cc2)cc(=O)n1C [Example 64, (S)-3-((S)-1-(4-(1,6-dimethyl-2-oxo-1,2-dihydropyridin-4-yl)phenyl)ethyl)-6-(2-hydroxy-2-methylpropyl)-6-phenyl-1,3-oxazinan-2-one] | – | 33 µM | – | 17 µM | –
CCn1ccc(-c2ccc([C@H](C)N3CC[C@](CC(C)(C)O)(c4ccccc4)OC3=O)cc2)cc1=O [Example 65, (S)-3-((S)-1-(4-(1-ethyl-2-oxo-1,2-dihydropyridin-4-yl)phenyl)ethyl)-6-(2-hydroxy-2-methylpropyl)-6-phenyl-1,3-oxazinan-2-one] | – | > 50 µM | > 50 µM | 25 µM | –
C[C@@H](c1ccc(-c2ccn(CC(F)(F)F)c(=O)c2)cc1)N1CC[C@](CC(C)(C)O)(c2ccccc2)OC1=O [Example 66, (S)-6-(2-hydroxy-2-methylpropyl)-3-((S)-1-(4-(2-oxo-1-(2,2,2-trifluoroethyl)-1,2-dihydropyridin-4-yl)phenyl)ethyl)-6-phenyl-1,3-oxazinan-2-one] | – | 10 µM | 18 µM | 11 µM | 5.5%
C[C@@H](c1ccc(-c2ccc(=O)n(CC(F)(F)F)c2)cc1)N1CC[C@](CC(C)(C)O)(c2ccccc2)OC1=O [Example 67, (S)-6-(2-hydroxy-2-methylpropyl)-3-((S)-1-(4-(6-oxo-1-(2,2,2-trifluoroethyl)-1,6-dihydropyridin-3-yl)phenyl)ethyl)-6-phenyl-1,3-oxazinan-2-one] | – | 41 µM | 28 µM | 34 µM | –
CC(C)n1ccc(-c2ccc([C@H](C)N3CC[C@](CC(C)(C)O)(c4ccccc4)OC3=O)cc2)cc1=O [Example 68, (S)-6-(2-hydroxy-2-methylpropyl)-3-((S)-1-(4-(1-isopropyl-2-oxo-1,2-dihydropyridin-4-yl)phenyl)ethyl)-6-phenyl-1,3-oxazinan-2-one] | – | 47 µM | 43 µM | 28 µM | –
C[C@@H](c1ccc(-c2ccc(=O)n(C)c2)cc1)N1CC[C@](CC(C)(C)C#N)(c2ccc(F)cc2)OC1=O [Example 69, 3-((R)-6-(4-fluorophenyl)-3-((S)-1-(4-(1-methyl-6-oxo-1,6-dihydropyridin-3-yl)phenyl)ethyl)-2-oxo-1,3-oxazinan-6-yl)-2,2-dimethylpropanenitrile] | – | 38 µM | 23 µM | – | –
CCn1cc(-c2ccc([C@H](C)N3CC[C@](CC(C)(C)O)(c4ccccc4)OC3=O)cc2)cc(C)c1=O [Example 70, (S)-3-((S)-1-(4-(1-ethyl-5-methyl-6-oxo-1,6-dihydropyridin-3-yl)phenyl)ethyl)-6-(2-hydroxy-2-methylpropyl)-6-phenyl-1,3-oxazinan-2-one] | – | – | 28 µM | 23 µM | –
C[C@@H](c1ccc(-c2ccc(=O)[nH]c2)cc1)N1CC[C@](CC(C)(C)C#N)(c2ccccc2)OC1=O [Example 71, 2,2-dimethyl-3-((R)-2-oxo-3-((S)-1-(4-(6-oxo-1,6-dihydropyridin-3-yl)phenyl)ethyl)-6-phenyl-1,3-oxazinan-6-yl)propanenitrile] | – | 17 µM | 6 µM | 24 µM | –
CCn1c(C)cc(-c2ccc([C@H](C)N3CC[C@](CC(C)(C)O)(c4ccccc4)OC3=O)cc2)cc1=O [Example 72, (S)-3-((S)-1-(4-(1-ethyl-6-methyl-2-oxo-1,2-dihydropyridin-4-yl)phenyl)ethyl)-6-(2-hydroxy-2-methylpropyl)-6-phenyl-1,3-oxazinan-2-one] | – | 35 µM | 41 µM | 8 µM | –
C[C@@H](c1ccc(-c2ccn(C3CC3)c(=O)c2)cc1)N1CC[C@](CC(C)(C)O)(c2ccccc2F)OC1=O [Example 88, (S)-3-((S)-1-(4-(1-cyclopropyl-2-oxo-1,2-dihydropyridin-4-yl)phenyl)ethyl)-6-(2-fluorophenyl)-6-(2-hydroxy-2-methylpropyl)-1,3-oxazinan-2-one] | – | 28 µM | – | – | –

Source: patent EP2424865B1 (Boehringer Ingelheim International GmbH, priority 2009, dated 2010)
